Source: PubChem BioAssay AID330 (DTP/NCI, 2004)
Values joined by “and” are separate entries in the source; they are usually repeats but may differ in a detail not shown here. Equal entries are not always repeated. Toxic doses and inconclusive results are not listed.

Test system: P388 leukemia ip, CD2F1 mice, survival T/C
Experiment: NCI In Vivo Anticancer Drug Screen. Data for tumor model P388 Leukemia (intraperitoneal) in CD2F1 (CDF1) mice
Conditions: endpoint: median survival time, higher = longer survival
Method in brief: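 Mice carrying the transplanted tumor received test compound or vehicle. Survival was recorded in each group, and the value is the treated-group measurement divided by that of the vehicle-treated control group.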

[1] = dose: 50.0 mg/kg/injection, schedule: Q01DX009 (ip), vehicle: saline with Tween-80
[2] = dose: 50.0 mg/kg/injection, schedule: Q04DX003 (ip), vehicle: saline with Tween-80
[3] = dose: 100.0 mg/kg/injection, schedule: Q01DX009 (ip), vehicle: saline with Tween-80
[4] = dose: 100.0 mg/kg/injection, schedule: Q04DX003 (ip), vehicle: saline with Tween-80
[5] = dose: 200.0 mg/kg/injection, schedule: Q01DX009 (ip), vehicle: saline with Tween-80
[6] = dose: 200.0 mg/kg/injection, schedule: Q04DX003 (ip), vehicle: saline with Tween-80
[7] = dose: 60.0 mg/kg/injection, schedule: Q01DX005 (ip), vehicle: saline with Tween-80
[8] = dose: 120.0 mg/kg/injection, schedule: Q01DX005 (ip), vehicle: saline with Tween-80
[9] = dose: 240.0 mg/kg/injection, schedule: Q01DX005 (ip), vehicle: saline with Tween-80
[10] = dose: 100.0 mg/kg/injection, schedule: Q04DX002 (ip), vehicle: saline
[11] = dose: 200.0 mg/kg/injection, schedule: Q04DX002 (ip), vehicle: saline
[12] = dose: 400.0 mg/kg/injection, schedule: Q04DX002 (ip), vehicle: saline
[13] = dose: 50.0 mg/kg/injection, schedule: Q01DX005 (ip), vehicle: saline with Tween-80
[14] = dose: 100.0 mg/kg/injection, schedule: Q01DX005 (ip), vehicle: saline with Tween-80
[15] = dose: 50.0 mg/kg/injection, schedule: Q01DX005 (ip), vehicle: Klucel (hydroxypropylcellulose) (HPC)
[16] = dose: 100.0 mg/kg/injection, schedule: Q01DX005 (ip), vehicle: Klucel (hydroxypropylcellulose) (HPC)
[17] = dose: 50.0 mg/kg/injection, schedule: Q01DX009 (ip), vehicle: saline
[18] = dose: 100.0 mg/kg/injection, schedule: Q01DX009 (ip), vehicle: saline
[19] = dose: 200.0 mg/kg/injection, schedule: Q01DX009 (ip), vehicle: saline
[20] = dose: 25.0 mg/kg/injection, schedule: Q04DX003 (ip), vehicle: saline with Tween-80

O=C(O)/C=C/C(=O)OCCBr
T/C [1]: 104 % of control
T/C [2]: 120 % of control
T/C [3]: 100 % of control
T/C [4]: 120 % of control
T/C [5]: 95 % of control
T/C [6]: 100 % of control

CCOC(=O)NC(=S)Nc1nonc1-c1ccccc1
T/C [7]: 96 % of control
T/C [8]: 100 % of control
T/C [9]: 97 % of control

CN1C2=CC=CC=CC2=[N+](C)C1C(=C=[N-])C#N (configuration not stated)
T/C (dose: 15.0 mg/kg/injection, schedule: Q01DX005 (ip), vehicle: saline with Tween-80): 104 % of control
T/C (dose: 30.0 mg/kg/injection, schedule: Q01DX005 (ip), vehicle: saline with Tween-80): 107 % of control
T/C [7]: 107 % of control and 115 % of control

Cc1ccc(NC(=S)SCc2ccccc2)cc1Cl
T/C [10]: 98 % of control
T/C [11]: 100 % of control
T/C [12]: 106 % of control

CC(C)CCNO
T/C [13]: 96 % of control
T/C [14]: 100 % of control
T/C (dose: 200.0 mg/kg/injection, schedule: Q01DX005 (ip), vehicle: saline with Tween-80): 93 % of control

COP(=S)(OC)Oc1ccc(S(N)(=O)=O)cc1
T/C (dose: 100.0 mg/kg/injection, schedule: Q04DX002 (ip), vehicle: saline with Tween-80): 102 % of control
T/C (dose: 200.0 mg/kg/injection, schedule: Q04DX002 (ip), vehicle: saline with Tween-80): 98 % of control
T/C (dose: 400.0 mg/kg/injection, schedule: Q04DX002 (ip), vehicle: saline with Tween-80): 98 % of control

C/C=C/C[P+](Cc1ccccc1)(c1ccccc1)c1ccccc1
T/C (dose: 0.78 mg/kg/injection, schedule: Q01DX009 (ip), vehicle: saline): 105 % of control
T/C (dose: 1.56 mg/kg/injection, schedule: Q01DX009 (ip), vehicle: saline): 113 % of control
T/C (dose: 3.13 mg/kg/injection, schedule: Q01DX009 (ip), vehicle: saline): 107 % of control

c1ccc(-c2nc3ccccc3n2CCc2ccncc2)nc1
T/C [15]: 107 % of control
T/C [16]: 104 % of control

C/C(=N\NC(=S)Nc1nccs1)c1ccccn1
T/C (dose: 100.0 mg/kg/injection, schedule: Q04DX003 (ip), vehicle: Klucel (hydroxypropylcellulose) (HPC)): 99 % of control
T/C (dose: 200.0 mg/kg/injection, schedule: Q04DX003 (ip), vehicle: Klucel (hydroxypropylcellulose) (HPC)): 105 % of control
T/C (dose: 400.0 mg/kg/injection, schedule: Q04DX003 (ip), vehicle: Klucel (hydroxypropylcellulose) (HPC)): 96 % of control

CCOC(=O)c1ccc(N=Cc2cccs2)cc1
T/C [17]: 88 % of control
T/C [18]: 92 % of control
T/C [19]: 102 % of control

OCCN1CN(c2ccccc2)C(=S)N(c2ccccc2)C1
T/C [1]: 97 % of control
T/C [3]: 100 % of control
T/C [5]: 93 % of control

CCCN=C(N)c1ccc(NC(=O)c2ccc(C(=O)Nc3ccc(C(N)=NCCC)cc3)cc2)cc1
T/C (dose: 6.25 mg/kg/injection, schedule: Q04DX003 (ip), vehicle: saline with Tween-80): 154 % of control
T/C (dose: 12.5 mg/kg/injection, schedule: Q04DX003 (ip), vehicle: saline with Tween-80): 163 % of control
T/C (dose: 25.0 mg/kg/injection, schedule: Q01DX009 (ip), vehicle: saline with Tween-80): 122 % of control
T/C [20]: 154 % of control
T/C [1]: 90 % of control
T/C [2]: 213 % of control
T/C [4]: 100 % of control

C=CN=NNc1ccc(C#N)cc1
T/C [4]: 90 % of control
T/C [6]: 106 % of control

CN1CCN(C)B1N=S=NB1N(C)CCN1C
T/C (dose: 12.5 mg/kg/injection, schedule: Q01DX005 (ip), vehicle: olive oil, sesame oil, peanut oil): 100 % of control and 105 % of control
T/C (dose: 25.0 mg/kg/injection, schedule: Q01DX005 (ip), vehicle: olive oil, sesame oil, peanut oil): 105 % of control and 96 % of control
T/C (dose: 50.0 mg/kg/injection, schedule: Q01DX005 (ip), vehicle: olive oil, sesame oil, peanut oil): 104 % of control and 97 % of control
T/C (dose: 100.0 mg/kg/injection, schedule: Q01DX005 (ip), vehicle: olive oil, sesame oil, peanut oil): 102 % of control and 103 % of control

N#CNC(=S)S
T/C [10]: 105 % of control
T/C [11]: 109 % of control
T/C [12]: 105 % of control

COCCNC(=S)SCCN(C(C)C)C(C)C
T/C [13]: 104 % of control
T/C [14]: 106 % of control

O=C(NC(c1ccccc1)c1cccs1)c1cccs1 (configuration not stated)
T/C [15]: 99 % of control
T/C [16]: 99 % of control
T/C (dose: 200.0 mg/kg/injection, schedule: Q01DX005 (ip), vehicle: Klucel (hydroxypropylcellulose) (HPC)): 103 % of control

COC(=O)C(=O)C1CCc2c(C(=O)OC)nc3[nH]n(-c4ccccc4)c(=O)c3c21 (configuration not stated)
T/C [7]: 111 % of control
T/C [8]: 94 % of control
T/C [9]: 88 % of control

Nc1[nH]c(=S)ncc1-c1ccc(Cl)c(Cl)c1
T/C [7]: 94 % of control
T/C [8]: 93 % of control
T/C [9]: 88 % of control

COc1ccc2c(c1OC)C(CC(=O)O)N1CCc3cc4c(cc3C1C2)OCO4 (configuration not stated)
T/C (dose: 0.63 mg/kg/injection, schedule: Q01DX009 (ip), vehicle: distilled water + Tween-80): 103 % of control
T/C (dose: 1.25 mg/kg/injection, schedule: Q01DX009 (ip), vehicle: distilled water + Tween-80): 99 % of control
T/C (dose: 2.5 mg/kg/injection, schedule: Q01DX009 (ip), vehicle: distilled water + Tween-80): 106 % of control
T/C (dose: 5.0 mg/kg/injection, schedule: Q01DX009 (ip), vehicle: distilled water + Tween-80): 101 % of control
T/C (dose: 10.0 mg/kg/injection, schedule: Q01DX009 (ip), vehicle: distilled water + Tween-80): 106 % of control
T/C (dose: 20.0 mg/kg/injection, schedule: Q01DX009 (ip), vehicle: distilled water + Tween-80): 94 % of control

CCOC(C)c1nc2c([nH]1)c(=O)n(C)c(=O)n2C (configuration not stated)
T/C (dose: 60.0 mg/kg/injection, schedule: Q01DX005 (ip), vehicle: saline): 99 % of control
T/C (dose: 120.0 mg/kg/injection, schedule: Q01DX005 (ip), vehicle: saline): 101 % of control
T/C (dose: 240.0 mg/kg/injection, schedule: Q01DX005 (ip), vehicle: saline): 95 % of control

O=C1C=CC2(C=C1)OCC(=O)O2
T/C [7]: 100 % of control
T/C [8]: 97 % of control
T/C [9]: 96 % of control

COc1cc([N+](=O)[O-])c2nccc(C)c2c1
T/C (dose: 25.0 mg/kg/injection, schedule: Q01DX009 (ip), vehicle: Klucel (hydroxypropylcellulose) (HPC)): 100 % of control
T/C (dose: 50.0 mg/kg/injection, schedule: Q01DX009 (ip), vehicle: Klucel (hydroxypropylcellulose) (HPC)): 101 % of control
T/C (dose: 100.0 mg/kg/injection, schedule: Q01DX009 (ip), vehicle: Klucel (hydroxypropylcellulose) (HPC)): 101 % of control
T/C (dose: 200.0 mg/kg/injection, schedule: Q01DX009 (ip), vehicle: Klucel (hydroxypropylcellulose) (HPC)): 104 % of control

CC(C)CSC(C)C
T/C [2]: 100 % of control
T/C [4]: 104 % of control
T/C [6]: 100 % of control

O=C1c2ccccc2-c2c1c1ccccc1n2S(=O)(=O)c1ccccc1
T/C (dose: 100.0 mg/kg/injection, schedule: Q01DX001 (ip), vehicle: Klucel (hydroxypropylcellulose) (HPC)): 103 % of control
T/C (dose: 200.0 mg/kg/injection, schedule: Q01DX001 (ip), vehicle: Klucel (hydroxypropylcellulose) (HPC)): 103 % of control
T/C (dose: 400.0 mg/kg/injection, schedule: Q01DX001 (ip), vehicle: Klucel (hydroxypropylcellulose) (HPC)): 101 % of control

O=[N+]([O-])c1cc2[nH]cnc2c([N+](=O)[O-])c1N1CCOCC1
T/C [20]: 100 % of control
T/C [2]: 104 % of control
T/C [4]: 97 % of control

NC(=O)C[n+]1ccccc1
T/C [17]: 101 % of control
T/C [18]: 111 % of control
T/C [19]: 118 % of control
T/C (dose: 400.0 mg/kg/injection, schedule: Q01DX009 (ip), vehicle: saline): 112 % of control

COc1ccc(/C=C/C(=O)C(CN(C)C)CN(C)C)cc1
T/C (dose: 1.56 mg/kg/injection, schedule: Q01DX005 (ip), vehicle: saline): 109 % of control
T/C (dose: 3.12 mg/kg/injection, schedule: Q01DX005 (ip), vehicle: saline): 96 % of control
T/C (dose: 6.25 mg/kg/injection, schedule: Q01DX005 (ip), vehicle: saline): 106 % of control

O=C(N/N=C\c1ccc(O)cc1)C(=O)N/N=C\c1ccc(O)cc1
T/C [17]: 87 % of control
T/C [18]: 92 % of control
T/C [19]: 96 % of control
